The test system of one experiment is S. aureus ATCC 13709. Briefly: MIC, S. aureus ATCC 13709 (Alamar Blue broth microdilution). The experiment is classed as cell-based. Conditions: Alamar Blue read after overnight incubation at 35° C.; for MIC: Staphylococcus aureus, ATCC13709, S. aureus; for MIC Sa: S. aureus. For orientation: Resazurin is reduced to fluorescent resorufin, in cell work by metabolically active cells.

For another experiment, the system named is E. coli ATCC 25922. Briefly: MIC, E. coli ATCC 25922. The experiment is classed as cell-based. Conditions: Alamar Blue read after overnight incubation at 35° C.; for MIC: Escherichia coli, ATCC25922, E. coli; for MIC Ec: E. coli.

The structures appear in SMILES notation. In brackets after ≈: the same amount, converted by molar mass.

For the molecule `CNc1cccc2c1[nH]c1nc(Sc3cnc4ccc[n+]([O-])c4c3)nc(N3CC(O)C3)c12` [1.17], the MIC (commonly the lowest concentration that inhibits growth of the organism) in the experiment with S. aureus ATCC 13709 is not above 0.5 µg/mL; in the experiment on E. coli ATCC 25922 it was more than 64 µg/mL.

`CNc1cc(F)cc2c1[nH]c1nc(Oc3cnc(C)nc3)nc(-c3cncnc3)c12` [4.449]: the MIC against S. aureus ATCC 13709 was not above 0.5 µg/mL; against E. coli ATCC 25922, more than 16 µg/mL.

Regarding `CNc1cccc2c1[nH]c1nc(Sc3cc4ncccc4[n+]([O-])c3)nc(N3C[C@@H]4[C@@H](N)[C@@H]4C3)c12` [1.31], the MIC against S. aureus ATCC 13709 and with E. coli ATCC 25922 was not above 0.5 µg/mL in each case.

As to `CNc1cc(F)cc2c1[nH]c1nc(Oc3cnc4ccoc4c3)nc(N3CC4CC(N)C4C3)c12` (stereo not drawn) [4.290], the minimum inhibitory concentration (MIC) against S. aureus ATCC 13709 and in the experiment with E. coli ATCC 25922 was not above 0.5 µg/mL in each case.

As to `CNc1cc(F)cc2c1[nH]c1nc(Oc3cnc(C(C)(C)C)nc3)nc(N3CC[C@@H](N)C3)c12` [4.319], the MIC against S. aureus ATCC 13709 and against E. coli ATCC 25922 was not above 0.5 µg/mL each time.

On to `CNc1cc(F)cc2c1[nH]c1nc(Oc3cnc(N)nc3)nc(N3C[C@H]4CC[C@@H](N)[C@H]4C3)c12` [4.186], for which the MIC in the experiment with S. aureus ATCC 13709 was not above 0.5 µg/mL; against E. coli ATCC 25922 it was 2 µg/mL (≈ 4.45 µM).

As for `CNc1ncc(Oc2nc(N3CC4C(N)C4C3)c3c(n2)[nH]c2c(NC)cc(F)cc23)cn1` (stereo not drawn) [4.218], the MIC in the experiment with S. aureus ATCC 13709 and with E. coli ATCC 25922 was not above 0.5 µg/mL in each case.

As for `CNc1cc(F)cc2c1[nH]c1nc(Oc3cnc(C(C)(C)O)nc3)nc(C3CC4(CC[C@H]4N)C3)c12` (stereo partly drawn) [4.431], the MIC against S. aureus ATCC 13709 and with E. coli ATCC 25922 was not above 0.5 µg/mL each time.

Turning to `CNc1cc(F)cc2c1[nH]c1nc(Oc3cnc(C(C)C)nc3)nc(N3CCC4(CC4N)C3)c12` (stereo not drawn) [4.235], the MIC in the experiment on S. aureus ATCC 13709 and with E. coli ATCC 25922 was not above 0.5 µg/mL in each case.

Turning to `CNc1cc(F)cc2c1[nH]c1nc(Oc3cncnc3)nc(N3CC4C[C@@H]3CN4)c12` [4.022], the MIC in the experiment on S. aureus ATCC 13709 was 8 µg/mL (≈ 19.7 µM); against E. coli ATCC 25922, 16 µg/mL (≈ 39.4 µM).

`CNc1cc(F)cc2c1[nH]c1nc(Oc3cnc(C)nc3)nc(N3CCCC4(CC4N)C3)c12` (stereo not drawn) [4.101]: in the experiment with S. aureus ATCC 13709, the “MIC Sa” value was not above 0.5 µg/mL. Also, in the experiment with E. coli ATCC 25922, the “MIC Ec” value is not above 0.5 µg/mL.

`CNc1cc(F)cc2c1[nH]c1nc(Oc3cncc(C(N)=O)c3)nc(N3CC4CC(N)C4C3)c12` (stereo not drawn) [4.236]: the MIC in the experiment on S. aureus ATCC 13709 and in the experiment with E. coli ATCC 25922 was not above 0.5 µg/mL in each case.

On to `CNc1cc(F)cc2c1[nH]c1nc(Oc3cnc(N4CCOCC4)nc3)nc(N3CCC(CN)C3)c12` (stereo not drawn) [4.215], for which the MIC in the experiment on S. aureus ATCC 13709 is not above 0.5 µg/mL; against E. coli ATCC 25922, 4 µg/mL (≈ 8.1 µM).

On to `CNc1cc(F)cc2c1[nH]c1nc(Oc3cnc(SC)nc3)nc(N3C[C@H]4C[C@@H]3C[C@H]4N)c12` [4.204], for which, in the experiment with S. aureus ATCC 13709, the “MIC Sa” value was not above 0.5 µg/mL. The “MIC Ec” value in the experiment with E. coli ATCC 25922 was not above 0.5 µg/mL.

For the molecule `CCNc1cccc2c1[nH]c1nc(Sc3cnc4cccnc4c3)nc(N3CC4C(N)C4C3)c12` (stereo not drawn) [1.11], the MIC is not above 0.5 µg/mL in the experiment on S. aureus ATCC 13709 and 8 µg/mL (≈ 17.1 µM) in the experiment on E. coli ATCC 25922.

As for `CNc1cccc2c1[nH]c1nc(Oc3cncc(C#N)c3)nc(N3CCN(CCN4CCOCC4)CC3)c12` [3.59], the minimal inhibitory concentration (MIC) with S. aureus ATCC 13709 was 4 µg/mL (≈ 7.79 µM); in the experiment on E. coli ATCC 25922, more than 64 µg/mL.

Take `CNc1cc(F)cc2c1[nH]c1nc(Oc3cncnc3)nc(N3CC4CC3C4CN)c12` (stereo not drawn) [4.030]: the “MIC Sa” value in the experiment on S. aureus ATCC 13709 is 2 µg/mL (≈ 4.76 µM). For the same molecule, the “MIC Ec” value against E. coli ATCC 25922 was 16 µg/mL (≈ 38.1 µM).

Regarding `CNc1cccc2c1[nH]c1nc(Oc3cnc(C)nc3)nc(N3CC4C(C3)C4NC(=O)CN)c12` (stereo not drawn) [3.18], the MIC in the experiment on S. aureus ATCC 13709 is 4 µg/mL (≈ 8.7 µM); against E. coli ATCC 25922, more than 16 µg/mL.

Take `CNc1cc(F)cc2c1[nH]c1nc(Oc3cncnc3)nc(N3CCC(C4(N)CC4)C3)c12` (stereo not drawn) [4.017]: the minimal inhibitory concentration (MIC) in the experiment on S. aureus ATCC 13709 and against E. coli ATCC 25922 was not above 0.5 µg/mL each time.

In the case of `CNc1cc(F)cc2c1[nH]c1nc(Oc3cnc(N)nc3)nc(N3CCC(CN)C3)c12` (stereo not drawn) [4.176], the values for the MIC in the experiment with S. aureus ATCC 13709 and against E. coli ATCC 25922 were not above 0.5 µg/mL and 1 µg/mL (≈ 2.36 µM), respectively.

Regarding `CNc1cc(F)cc2c1[nH]c1nc(Oc3cnc(C4CC4)nc3)nc(N3CC4C(N)C4C3)c12` (stereo not drawn) [4.241], the “MIC Sa” value in the experiment on S. aureus ATCC 13709 is not above 0.5 µg/mL. The “MIC Ec” value in the experiment with E. coli ATCC 25922 was not above 0.5 µg/mL.

Take `CNc1cccc2c1[nH]c1nc(Oc3cncnc3)nc(N3CC(N)C4(CC4)C3)c12` (stereo not drawn) [3.45]: the MIC in the experiment with S. aureus ATCC 13709 and against E. coli ATCC 25922 was not above 0.5 µg/mL each time.

Take `CNc1cccc2c1[nH]c1nc(Oc3cncnc3)nc(N3CC4CC4(N)C3)c12` (stereo not drawn) [3.1]: the minimal inhibitory concentration (MIC) amounted to 1 µg/mL (≈ 2.57 µM) against S. aureus ATCC 13709 and 4 µg/mL (≈ 10.3 µM) against E. coli ATCC 25922.

On to `CNc1cccc2c1[nH]c1nc(Oc3cncnc3)nc(N3CCC(C(N)=O)C3)c12` (stereo not drawn) [3.17], for which the MIC was 2 µg/mL (≈ 4.95 µM) against S. aureus ATCC 13709 and more than 16 µg/mL with E. coli ATCC 25922.

In the case of `CNc1cc(F)cc2c1[nH]c1nc(Oc3cnc(C)nc3)nc(N3CC(C)C(CN)C3)c12` (stereo not drawn) [4.087], the “MIC Sa” value in the experiment on S. aureus ATCC 13709 was not above 0.5 µg/mL. In addition, the “MIC Ec” value against E. coli ATCC 25922 came out at 1 µg/mL (≈ 2.29 µM).

Turning to `CNc1cc(F)cc2c1[nH]c1nc(Oc3cnc(C)nc3)nc(N3CC4(CCN4)C3)c12` [4.120], the “MIC Sa” value against S. aureus ATCC 13709 is not above 0.5 µg/mL. Also, the “MIC Ec” value against E. coli ATCC 25922 was 1 µg/mL (≈ 2.38 µM).

For the molecule `NC1CN(c2nc(Sc3cnc4nccnc4c3)nc3[nH]c4ccccc4c23)C1` [1.5], the MIC in the experiment with S. aureus ATCC 13709 and in the experiment on E. coli ATCC 25922 was more than 64 µg/mL in each case.
